{"source": "the supplement of paper PMC10307832"}
{"compound": "CN1CCC(CC1)OC2=CC(=C(C=C2)NC3=NC=C4C(=N3)N(C(=O)N4C)C5CCCC5)OC [AZ3146] + COc1cc2c(Oc3ccc(NC(=O)C4(C(=O)Nc5ccc(F)cc5)CC4)cc3F)ccnc2cc1OCCCN1CCOCC1 [Foretinib] (partner 0.25 µM)", "test": "relative viability (nuclei count vs DMSO), 5 days (fraction); higher = more cells survive", "settings": "first compound 8 µM", "procedure,_shortened": "(§1)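 A single step with final 0.05% Triton X-100, 1% formaldehyde and 1 ug/ml Hoechst fixed the cells and stained nuclei 5 days after treatment. Lung cancer cell lines in 1536-well plates had been treated by pin tool the day after seeding with one drug alone or a fixed anchor-drug dose plus five library-drug doses (not always all listed) in √10 steps, and nuclei were counted on 4× images. Relative viability is the ratio of nuclei in treated wells to nuclei in vehicle wells, taken as the median of duplicate plates.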"}
{"cell line": "PC-3 [JPC-3]", "relative viability": 0.966}
{"cell line": "LOU-NH91", "relative viability": 0.948}
{"cell line": "NCI-H647", "relative viability": 1.21}
{"cell line": "NCI-H23", "relative viability": 0.612}
{"cell line": "EPLC-272H", "relative viability": 0.721}
{"cell line": "NCI-H2126", "relative viability": 1.29}
{"cell line": "ChaGo-K-1", "relative viability": 0.816}
{"cell line": "NCI-H1734", "relative viability": 0.705}
{"cell line": "NCI-H650", "relative viability": 1.18}
{"cell line": "LK-2", "relative viability": 1.3}
{"cell line": "NCI-H2228", "relative viability": 0.656}
{"cell line": "NCI-H2342", "relative viability": 1.07}
{"cell line": "NCI-H1944", "relative viability": 0.99}
{"cell line": "HARA", "relative viability": 0.197}
{"cell line": "Calu-6", "relative viability": 0.48}
{"cell line": "COR-L23", "relative viability": 0.787}
{"cell line": "LCLC-103H", "relative viability": 0.657}
{"cell line": "EBC-1", "relative viability": 0.117}
{"cell line": "NCI-H358", "relative viability": 0.212}
{"cell line": "A549", "relative viability": 0.063}
{"cell line": "SW 900", "relative viability": 0.759}
{"cell line": "NCI-H1299", "relative viability": 0.679}
{"cell line": "IA-LM", "relative viability": 0.285}
{"cell line": "NCI-H661", "relative viability": 0.764}
{"cell line": "NCI-H1703", "relative viability": 0.272}
{"cell line": "NCI-H1563", "relative viability": 0.864}
{"cell line": "ABC-1", "relative viability": 0.709}
{"cell line": "NCI-H727", "relative viability": 0.86}
{"compound": "CN1CCC(CC1)OC2=CC(=C(C=C2)NC3=NC=C4C(=N3)N(C(=O)N4C)C5CCCC5)OC [AZ3146] + Nc1nc2[nH]cc(CCc3ccc(C(=O)N[C@@H](CCC(=O)O)C(=O)O)cc3)c2c(=O)[nH]1 [Pemetrexed] (partner 0.2 µM)", "test": "relative viability (nuclei count vs DMSO), 5 days (fraction); higher = more cells survive", "settings": "first compound 0.08 µM", "procedure,_shortened": "as §1"}
{"cell line": "NCI-H522", "relative viability": 0.917}
{"cell line": "PC-14", "relative viability": 0.138}
{"cell line": "NCI-H1666", "relative viability": 0.771}
{"cell line": "EKVX", "relative viability": 0.441}
{"cell line": "NCI-H1755", "relative viability": 0.666}
{"cell line": "NCI-H2023", "relative viability": 0.207}
{"cell line": "SK-LU-1", "relative viability": 0.921}
{"cell line": "PC-3 [JPC-3]", "relative viability": 0.999}
{"cell line": "LOU-NH91", "relative viability": 0.327}
{"cell line": "NCI-H647", "relative viability": 0.22}
{"cell line": "NCI-H23", "relative viability": 0.789}
{"cell line": "EPLC-272H", "relative viability": 0.366}
{"cell line": "NCI-H2126", "relative viability": 0.613}
{"cell line": "ChaGo-K-1", "relative viability": 0.562}
{"cell line": "HCC-44", "relative viability": 0.601}
{"cell line": "NCI-H1734", "relative viability": 0.414}
{"cell line": "NCI-H650", "relative viability": 0.871}
{"cell line": "NCI-H2228", "relative viability": 0.297}
{"cell line": "NCI-H2342", "relative viability": 0.69}
{"cell line": "NCI-H1944", "relative viability": 0.484}
{"cell line": "HARA", "relative viability": 0.22}
{"cell line": "COR-L23", "relative viability": 0.195}
{"cell line": "LCLC-103H", "relative viability": 0.429}
{"cell line": "NCI-H358", "relative viability": 0.153}
{"cell line": "SW 900", "relative viability": 0.459}
{"cell line": "NCI-H1792", "relative viability": 0.606}
{"cell line": "NCI-H661", "relative viability": 0.939}
{"cell line": "NCI-H1563", "relative viability": 0.673}
{"compound": "CN1CCC(CC1)OC2=CC(=C(C=C2)NC3=NC=C4C(=N3)N(C(=O)N4C)C5CCCC5)OC [AZ3146] + Nc1nc2[nH]cc(CCc3ccc(C(=O)N[C@@H](CCC(=O)O)C(=O)O)cc3)c2c(=O)[nH]1 [Pemetrexed] (partner 0.2 µM)", "test": "relative viability (nuclei count vs DMSO), 5 days (fraction); higher = more cells survive", "settings": "first compound 0.253 µM", "procedure,_shortened": "as §1"}
{"cell line": "NCI-H522", "relative viability": 0.905}
{"cell line": "PC-14", "relative viability": 0.131}
{"cell line": "NCI-H1666", "relative viability": 0.825}
{"cell line": "EKVX", "relative viability": 0.424}
{"cell line": "NCI-H1755", "relative viability": 0.532}
{"cell line": "NCI-H2023", "relative viability": 0.238}
{"cell line": "HCC-78", "relative viability": 1}
{"cell line": "SK-LU-1", "relative viability": 1.03}
{"cell line": "LOU-NH91", "relative viability": 0.448}
{"cell line": "NCI-H647", "relative viability": 0.178}
{"cell line": "NCI-H23", "relative viability": 0.645}
{"cell line": "EPLC-272H", "relative viability": 0.369}
{"cell line": "NCI-H2126", "relative viability": 0.662}
{"cell line": "ChaGo-K-1", "relative viability": 0.248}
{"cell line": "HCC-44", "relative viability": 0.654}
{"cell line": "NCI-H1734", "relative viability": 0.433}
{"cell line": "NCI-H650", "relative viability": 0.747}
{"cell line": "NCI-H2228", "relative viability": 0.325}
{"cell line": "NCI-H2342", "relative viability": 0.821}
{"cell line": "NCI-H1944", "relative viability": 0.616}
{"cell line": "HARA", "relative viability": 0.257}
{"cell line": "COR-L23", "relative viability": 0.196}
{"cell line": "LCLC-103H", "relative viability": 0.439}
{"cell line": "NCI-H358", "relative viability": 0.168}
{"cell line": "NCI-H1792", "relative viability": 0.871}
{"cell line": "NCI-H661", "relative viability": 0.894}
{"cell line": "NCI-H1563", "relative viability": 0.645}
{"compound": "CN1CCC(CC1)OC2=CC(=C(C=C2)NC3=NC=C4C(=N3)N(C(=O)N4C)C5CCCC5)OC [AZ3146] + Nc1nc2[nH]cc(CCc3ccc(C(=O)N[C@@H](CCC(=O)O)C(=O)O)cc3)c2c(=O)[nH]1 [Pemetrexed] (partner 0.2 µM)", "test": "relative viability (nuclei count vs DMSO), 5 days (fraction); higher = more cells survive", "settings": "first compound 0.8 µM", "procedure,_shortened": "as §1"}
{"cell line": "NCI-H522", "relative viability": 0.898}
{"cell line": "PC-14", "relative viability": 0.142}
{"cell line": "NCI-H1666", "relative viability": 0.83}
{"cell line": "EKVX", "relative viability": 0.365}
{"cell line": "NCI-H1755", "relative viability": 0.463}
{"cell line": "NCI-H2023", "relative viability": 0.226}
{"cell line": "HCC-78", "relative viability": 0.911}
{"cell line": "SK-LU-1", "relative viability": 0.961}
{"cell line": "PC-3 [JPC-3]", "relative viability": 1.19}
{"cell line": "LOU-NH91", "relative viability": 0.362}
{"cell line": "NCI-H647", "relative viability": 0.188}
{"cell line": "NCI-H23", "relative viability": 0.857}
{"cell line": "EPLC-272H", "relative viability": 0.37}
{"cell line": "NCI-H2126", "relative viability": 0.618}
{"cell line": "ChaGo-K-1", "relative viability": 0.254}
{"cell line": "HCC-44", "relative viability": 0.687}
{"cell line": "NCI-H1734", "relative viability": 0.388}
{"cell line": "NCI-H650", "relative viability": 0.78}
{"cell line": "LK-2", "relative viability": 0.168}
{"cell line": "NCI-H2228", "relative viability": 0.333}
{"cell line": "NCI-H2342", "relative viability": 0.807}
{"cell line": "NCI-H1944", "relative viability": 0.636}
{"cell line": "HARA", "relative viability": 0.245}
{"cell line": "COR-L23", "relative viability": 0.215}
{"cell line": "LCLC-103H", "relative viability": 0.444}
{"cell line": "NCI-H358", "relative viability": 0.192}
{"cell line": "SW 900", "relative viability": 0.445}
{"cell line": "NCI-H1648", "relative viability": 1.02}
{"cell line": "NCI-H1792", "relative viability": 0.68}
{"cell line": "NCI-H661", "relative viability": 0.956}
{"cell line": "NCI-H1563", "relative viability": 0.717}
{"compound": "CN1CCC(CC1)OC2=CC(=C(C=C2)NC3=NC=C4C(=N3)N(C(=O)N4C)C5CCCC5)OC [AZ3146] + Nc1nc2[nH]cc(CCc3ccc(C(=O)N[C@@H](CCC(=O)O)C(=O)O)cc3)c2c(=O)[nH]1 [Pemetrexed] (partner 0.2 µM)", "test": "relative viability (nuclei count vs DMSO), 5 days (fraction); higher = more cells survive", "settings": "first compound 2.53 µM", "procedure,_shortened": "as §1"}
{"cell line": "NCI-H522", "relative viability": 1.09}
{"cell line": "PC-14", "relative viability": 0.119}
{"cell line": "NCI-H1666", "relative viability": 0.901}
{"cell line": "EKVX", "relative viability": 0.389}
{"cell line": "NCI-H1755", "relative viability": 0.509}
{"cell line": "NCI-H2023", "relative viability": 0.216}
{"cell line": "HCC-78", "relative viability": 0.91}
{"cell line": "SK-LU-1", "relative viability": 1.06}
{"cell line": "PC-3 [JPC-3]", "relative viability": 1.02}
{"cell line": "LOU-NH91", "relative viability": 0.368}
{"cell line": "NCI-H647", "relative viability": 0.204}
{"cell line": "NCI-H23", "relative viability": 0.787}
{"cell line": "EPLC-272H", "relative viability": 0.341}
{"cell line": "NCI-H2126", "relative viability": 0.677}
{"cell line": "ChaGo-K-1", "relative viability": 0.258}
{"cell line": "HCC-44", "relative viability": 0.698}
{"cell line": "NCI-H1734", "relative viability": 0.428}
{"cell line": "NCI-H650", "relative viability": 0.949}
{"cell line": "LK-2", "relative viability": 0.318}
{"cell line": "NCI-H2228", "relative viability": 0.298}
{"cell line": "NCI-H2342", "relative viability": 0.756}
{"cell line": "NCI-H1944", "relative viability": 0.646}
{"cell line": "HARA", "relative viability": 0.217}
{"cell line": "COR-L23", "relative viability": 0.208}
{"cell line": "LCLC-103H", "relative viability": 0.49}
{"cell line": "NCI-H358", "relative viability": 0.171}
{"cell line": "SW 900", "relative viability": 0.492}
{"cell line": "NCI-H1648", "relative viability": 0.801}
{"cell line": "NCI-H1792", "relative viability": 1.04}
{"cell line": "NCI-H661", "relative viability": 0.92}
{"cell line": "NCI-H1563", "relative viability": 0.797}
{"compound": "CN1CCC(CC1)OC2=CC(=C(C=C2)NC3=NC=C4C(=N3)N(C(=O)N4C)C5CCCC5)OC [AZ3146] + Nc1nc2[nH]cc(CCc3ccc(C(=O)N[C@@H](CCC(=O)O)C(=O)O)cc3)c2c(=O)[nH]1 [Pemetrexed] (partner 0.2 µM)", "test": "relative viability (nuclei count vs DMSO), 5 days (fraction); higher = more cells survive", "settings": "first compound 8 µM", "procedure,_shortened": "as §1"}
{"cell line": "NCI-H522", "relative viability": 0.968}
{"cell line": "PC-14", "relative viability": 0.0971}
{"cell line": "NCI-H1666", "relative viability": 0.788}
{"cell line": "EKVX", "relative viability": 0.422}
{"cell line": "NCI-H1755", "relative viability": 0.496}
{"cell line": "NCI-H2023", "relative viability": 0.129}
{"cell line": "HCC-78", "relative viability": 0.895}
